Data published in article PMC8178997 (Chemical Science, 2020).
Where no end group is shown, it is not given here.

Molecular target: T1, NCBD (the [2066–2112]-fragment of CBP) (Mus musculus, UniProt P45481)
T1 sequence (P45481 2066-2112): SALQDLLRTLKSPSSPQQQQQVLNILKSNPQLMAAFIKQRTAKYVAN
Assay: Isothermal titration calorimetry
Assay type: binding

## EGQMDERALLEQLHQLLSNTDATGLEEIDRALGIPELVNQGQALEPK [[S1043M;D1050E;T1054Q]]
  Kd: 188 nM
